Assay results: article PMC7055211 (Scientific Reports, 2020)

Test system: Mahoney strain of poliovirus
Format: cell-based, Poliovirus Type I Mahoney
Details: 293 T; infectivity; PFU

COc1ccc2[nH]c([S+]([O-])Cc3ncc(C)c(OC)c3C)nc2n1 (stereo not shown) [Tenatoprazole, tenatoprazole]
Virus Production (resistant or susceptible), PV: Resistant
